Laboratory results published in paper PMC6385020 (Molecules, 2019).
Several values for one entry are separate records, joined by “and”; a condition that tells them apart may be missing. Equal entries are not always repeated. Blank lines part the entries; values can stand above or below the molecule they belong to.

Key:
[1] = tested on: F-myc-T (DNA, G4) TGAGGGTGGGTAGGGTGGGTAA; assay: FRET-melting; settings: 1 mM KCl, 99 mM LiCl; 10 mM lithium cacodylate pH 7.3; 1 µM compound, 0.2 µM DNA
[2] = tested on: F-21CTA-T (DNA, G4) AGGGCTAGGGCTAGGGCTAGGG; assay: FRET-melting; settings: 1 mM KCl, 99 mM LiCl; 10 mM lithium cacodylate pH 7.3; 1 µM compound, 0.2 µM DNA
[3] = tested on: F-21-T (DNA, G4) GGGTTAGGGTTAGGGTTAGGG; assay: FRET-melting; settings: 10 mM KCl, 90 mM LiCl; 10 mM lithium cacodylate pH 7.3; 1 µM compound, 0.2 µM DNA
[4] = tested on: F-CEB25-WT-T (DNA, G4) AGGGTGGGTGTAAGTGTGGGTGGGT; assay: FRET-melting; settings: 1 mM KCl, 99 mM LiCl; 10 mM lithium cacodylate pH 7.3; 1 µM compound, 0.2 µM DNA
[5] = tested on: 21CTA (DNA, G4) AGGGCTAGGGCTAGGGCTAGGG; assay: G4-FID, thiazole orange displacement; settings: 100 mM KCl; 10 mM lithium cacodylate pH 7.3, 1% DMSO; thiazole orange displaced; 1 µM compound, 0.25 µM DNA
[6] = tested on: c-myc (myc22) (DNA, G4) TGAGGGTGGGTAGGGTGGGTAA; assay: G4-FID, thiazole orange displacement; settings: 100 mM KCl; 10 mM lithium cacodylate pH 7.3, 1% DMSO; thiazole orange displaced; 1 µM compound, 0.25 µM DNA
[7] = tested on: CEB25-WT (DNA, G4) AAGGGTGGGTGTAAGTGTGGGTGGGT; assay: G4-FID, thiazole orange displacement; settings: 100 mM KCl; 10 mM lithium cacodylate pH 7.3, 1% DMSO; thiazole orange displaced; 1 µM compound, 0.25 µM DNA
[8] = tested on: 22AG (DNA, G4) AGGGTTAGGGTTAGGGTTAGGG; assay: G4-FID, thiazole orange displacement; settings: 100 mM KCl; 10 mM lithium cacodylate pH 7.3, 1% DMSO; thiazole orange displaced; 1 µM compound, 0.25 µM DNA
[9] = tested on: ds26 (DNA, duplex) CAATCGGATCGAATTCGATCCGATTG; assay: G4-FID, thiazole orange displacement; settings: 100 mM KCl; 10 mM lithium cacodylate pH 7.3, 1% DMSO; thiazole orange displaced; 1 µM compound, 0.25 µM DNA
[10] = tested on: CCD19Lu normal lung cell line; assay: Cell growth (proliferation), 96 h treatment; assay type: cell-based, human
Description: (§1) The ovarian carcinoma cell lines and human normal lung cells were purchased from ATCC and were grown in complete RPMI medium (ovarian) and DMEM (human lung cells) supplemented with 10% fetal calf serum, in the presence of penicillin, streptomycin. The resistance of A2780cis cells to cisplatin was maintained by monthly treatment with 1 µM cisplatin for 4 days. Concentrated stock solutions of complexes were conserved at −20 °C (DMSO/Water) and freshly diluted in water just before the experiments. Cells were treated with various concentrations of platinum complexes at 37 °C under humidity and 5% CO2 conditions for 96 h. Cellular growth was quantified using the particle counter MOXI (VWR).

[11] = tested on: A2780cis cisplatin-resistant ovarian cancer cell line; assay: Cell growth (proliferation), 96 h treatment; assay type: cell-based, human; settings: 96 h treatment
Description: as §1

[12] = tested on: A2780 ovarian cancer cell line; assay: Cell growth (proliferation), 96 h treatment; assay type: cell-based, human; settings: A2780, 96 h treatment
Description: as §1

c-myc G4 = tested on: c-myc G4; set-up: method as in PMID 21528379; settings: cited from earlier work
[13] = tested on: all the tested G4s structures; set-up: method as in PMID 21528379; settings: cited from earlier work
22AG G4 = tested on: 22AG G4; set-up: method as in PMID 28825434; settings: K+100 buffer, 20 °C; cited from earlier work
21CTA G4 = tested on: 21CTA G4; set-up: method as in PMID 21528379; settings: cited from earlier work

SMILES: [C-]#Cc1ccccc1.[Pt+2].c1ccc(-c2cccc(-c3ccccn3)n2)nc1
binding [1]: no | binding [2]: no | binding [3]: no | binding [4]: no

% TO displacement [5]: > 80% | % TO displacement [6]: > 80% | % TO displacement [7]: > 80% | % TO displacement [8]: > 80% | % TO displacement [9]: < 20%
SMILES: [Cl-].[Pt+2].c1cc(-c2ccc3ccccc3n2)nc(-c2ccc3ccccc3n2)c1

SMILES: N.N.[Cl][Pt][Cl] [cisplatin, reference compound]
IC50 [10]: 200 nM | Resistance Factor (IC50ratio A2780cis/A2780) [11]: 9.1 | IC50 ([11]; A2780cis): 3000 nM | IC50 [12]: 330 nM

SMILES: CN1C(=Cc2cc[n+](C)c3ccccc23)Sc2ccccc21 [TO, Thiazole Orange]
KA (c-myc G4): 5 × 10^6 M^−1 and 5 × 10^6 (b) M^−1 | affinity constants towards all the tested G4s structures (Ka) [13]: ~ 10^6 M^−1 | KA (22AG G4): 1 × 10^6 (a) M^−1 | KA (21CTA G4): 1 × 10^6 (b) M^−1
